{"source": "paper PMC7802075", "about": "(ACS Infectious Diseases, 2020)", "key": {"[1]": {"test_system": "L. major (FV1) promastigotes", "test": "Antipromastigote resazurin assay, L. major (FV1) wild type", "assay_type": "cell-based, Leishmania major", "conditions": "Leishmania major; FV1 WT, 48 h, compared with mutant lines; read-out: EC50 wild type L. major promastigotes"}, "[2]": {"target": "T1, LmjIPCS (inositol phosphorylceramide synthase from L. major) (Leishmania major, UniProt E9AFX2)", "T1 sequence (E9AFX2 1-338)": "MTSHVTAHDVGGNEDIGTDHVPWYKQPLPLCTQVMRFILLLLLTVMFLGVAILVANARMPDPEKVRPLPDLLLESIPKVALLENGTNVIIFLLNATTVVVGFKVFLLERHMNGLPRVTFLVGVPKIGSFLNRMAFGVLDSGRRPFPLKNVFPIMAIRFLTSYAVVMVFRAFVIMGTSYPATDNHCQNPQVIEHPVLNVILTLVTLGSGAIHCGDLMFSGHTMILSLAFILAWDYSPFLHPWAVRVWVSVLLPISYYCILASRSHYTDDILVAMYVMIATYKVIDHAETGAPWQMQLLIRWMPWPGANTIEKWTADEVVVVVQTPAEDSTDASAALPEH", "test": "biochemical", "assay_type": "biochemical"}, "[3]": {"test_system": "L. major ΔLmjLCB2 mutant promastigotes", "test": "microbe, parasite or virus in culture", "assay_type": "cell-based", "conditions": "Leishmania major; sphingolipid-free mutant, 48 h; read-out: EC50 ΔLmjLCB2 parasites"}, "[4]": {"test_system": "L. major add-back (AB) line promastigotes [pXNEO LmLCB2]", "test": "microbe, parasite or virus in culture", "assay_type": "cell-based", "conditions": "Leishmania major, 48 h"}, "[5]": {"test_system": "Leishmania species (L. major, L. amazonensis, L. donovani, L. infantum)", "test": "Dose response positive control, each Leishmania species", "assay_type": "cell-based, Leishmania spp.", "conditions": "for each species", "protocol": "[…]. Resazurin solution (10 μL) was then added and the plate, incubated at 26 °C for 4 h prior to measurement using a fluorescence plate reader (Ex555/Em585). EC50 values were calculated using sigmoidal regression analysis (GraphPad Prism).\n[…]. After 24 h of infection, serial dilutions of the test compounds in medium were added and the slides were incubated at 37 °C and 5% CO2 for 5 days (L. major) or 2 days (L. amazonensis). Amphotericin B and miltefosine were used as controls. At the end, cells were fixed with methanol and stained with Giemsa solution, and the intracelular amastigotes were counted using a light microscope. Results were expressed as the percentage reduction of intracellular amastigotes (compared with untreated control wells). EC50 values were calculated using sigmoidal regression analysis (GraphPad Prism)."}, "[6]": {"test_system": "clemastine fumarate-resistant L. major promastigotes (cl.C and cl.D)", "assay_type": "cell-based, Leishmania major"}, "[7]": {"conditions": "in vivo; cited from earlier work"}, "[8]": {"test_system": "wild type Leishmania major promastigotes", "assay_type": "cell-based"}, "[9]": {"conditions": "in vivo; cited from earlier work", "remark": "listed apart in the source"}, "[10]": {"test_system": "BMDM uninfected macrophages, nitrite formation", "test": "Nitric oxide assay (Griess) in uninfected macrophages", "assay_type": "cell-based, mouse", "conditions": "serial dilutions, 48 h", "protocol": "The release of nitric oxide was measured in the culture supernatant by the Griess method, as described previously.[81] The absorbance was measured at 570 nm, and the nitrite concentration was determined using a standard curve of sodium nitrite (0 to 50 μM). The positive control was macrophages incubated with 1 μg mL^–1 LPS (Sigma-Aldrich, Brazil) and 10% conditioned medium of lymphocytes as a source of IFN. Negative controls were cells treated with DMSO and untreated cells."}, "[11]": {"test_system": "L. amazonensis intracellular amastigotes in BMDM from C57BL/6 WT or P2X7R KO mice"}, "[12]": {"conditions": "in vivo; cited from earlier work", "remark": "listed apart in the source"}}, "note": "Where a name gives a salt, the structure may show the parent alone.", "data": [{"molecule": "C[C@@H]1C[C@@H]([C@H](O)CC2CC(=O)NC(=O)C2)C(=O)[C@@H](C)C1", "note": "[cycloheximide, reference compound]", "values": [{"measurement": "EC50", "setting": "[1]", "result": 20, "unit": "nM"}, {"measurement": "inhibition at 20000 µM", "setting": "[2]; read-out: 20mM inhibition LmjIPCS", "result": 9, "unit": "%"}, {"measurement": "EC50", "setting": "[3]", "result": 20, "unit": "nM"}, {"measurement": "EC50", "setting": "[4]", "result": 20, "unit": "nM"}]}, {"molecule": "C[C@@H]1[C@H](O)[C@@H](C)/C=C/C=C/C=C/C=C/C=C/C=C/C=C/[C@H](O[C@@H]2O[C@H](C)[C@@H](O)[C@H](N)[C@@H]2O)C[C@@H]2O[C@](O)(C[C@@H](O)C[C@@H](O)[C@H](O)CC[C@@H](O)C[C@@H](O)CC(=O)O[C@H]1C)C[C@H](O)[C@H]2C(=O)O", "note": "[amphotericin B]", "values": [{"measurement": "20mM inhibition LmjIPCS", "setting": "[2]", "result": 41, "unit": "%"}, {"measurement": "EC50", "setting": "[5]", "result": "27 ± 3", "unit": "nM"}, {"measurement": "cross-resistance in clemastine fumarate-resistant L. major clones", "setting": "[6]", "result": "no evidence for cross-resistance"}]}, {"molecule": "CN1CCC[C@@H]1CCO[C@](C)(c1ccccc1)c1ccc(Cl)cc1", "note": "[clemastine fumarate 1, clemastine fumarate]", "values": [{"measurement": "oral LD50 (rat)", "setting": "[7]", "result": 3550, "unit": "mg.kg^–1"}, {"measurement": "cell density", "setting": "[8]", "result": "no change in cell density"}, {"measurement": "volume of distribution", "setting": "[9]", "result": "9.5 ± 3.8", "unit": "L kg^–1"}, {"measurement": "nitrite formation (NO levels)", "setting": "[10]", "result": "no significant effect"}, {"measurement": "nitrite formation (NO levels)", "setting": "[10]; listed as clemastine", "result": "statistically non-significant"}, {"measurement": "effect of addition of extracellular ATP, P2X7R KO macrophages", "setting": "[11]", "result": "did not show any effect"}, {"measurement": "oral LD50 (mouse)", "setting": "[12]", "result": 730, "unit": "mg.kg^–1"}]}]}
